Results from patent US11844823B2, “Beta-hairpin peptidomimetic with elastase inhibitory activity and aerosol dosage forms thereof” (POLYPHOR AG, priority 2016, dated 2023).
Non-standard residues stand in square brackets, D forms with d. Residues, ends and D or L forms follow the SMILES beside them. Gly(octyl) = CCCCCCCC[C@H](N)C(=O)O

Legend:
[1] = system: patients with cystic fibrosis; assay: Phase-1b single ascending dose study in patients with cystic fibrosis, safety and tolerability; type: in vivo, human
Text: In this randomised, double-blind, placebo-controlled, parallel-group (per dose level) dose-escalation study, the safety and tolerability of single ascending doses (SAD) of acetate salt of cyclo(-OctG-Glu-Thr-Ala-Ser-Ile-Pro-Pro-Gln-Lys-Tyr-^DPro-Pro-) administered by inhalation in patients with cystic fibrosis (CF) was investigated. Additionally, the pharmacokinetics of the drug following a single ascending dose in plasma and sputum as well as its pharmacodynamic effect on neutrophil elastase activity in sputum were evaluated.
In this study, conducted by Inamed GmbH, Gauting, Germany, 24 subjects with cystic fibrosis, who fulfilled all the inclusion criteria and in whom no exclusion criterion was present, were included and received randomised treatment. They were grouped into 3 dose groups of 8 subjects each. 6 subjects received the formulation described in Example 1 and dilutions thereof and 2 subjects received placebo (0.5% [w/w] aqueous sodium chloride solution adjusted to pH 5.5 with 1 M HCl pharmaceutical grade). The oral inhalation of the above formulation as well as the placebo occurred via the Pari eFlow® XL 30 nebulizer device (Pari Pharma GmbH, Starnberg, Germany). The dose levels and corresponding concentrations of cyclo(-OctG-Glu-Thr-Ala-Ser-Ile-Pro-Pro-Gln-Lys-Tyr-^DPro-Pro-) (active compound) are summarized in Table 14.
The volume of placebo nebulizer solution corresponded to that of the active compound at a particular dose level. The duration of inhalation was estimated to be between 7 and 20 min. Adverse events were tabulated and summarized according to the current version of Medical Dictionary for Regulatory Activities.

[2] = target: T1, human neutrophil elastase (Homo sapiens, UniProt P08246); assay: Phase-1b study, active neutrophil elastase in sputum by FRET elastase assay; type: in vivo; details: CF patients; response appeared independent of dose; returned to baseline at 24 h
T1 construct: from tissue; host or cells: spontaneous sputum of patients with cystic fibrosis (PBS-soluble fraction)
T1 sequence (P08246 30-247 limits assumed): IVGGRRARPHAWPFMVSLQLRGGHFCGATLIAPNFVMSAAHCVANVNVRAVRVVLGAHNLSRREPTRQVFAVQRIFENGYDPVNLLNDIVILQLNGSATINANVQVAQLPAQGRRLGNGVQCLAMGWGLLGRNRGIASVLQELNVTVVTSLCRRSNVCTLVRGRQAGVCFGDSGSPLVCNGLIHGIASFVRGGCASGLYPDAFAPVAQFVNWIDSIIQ
Experimental: The pharmacodynamic effect of ascending single doses of active compound was investigated by evaluation of neutrophil elastase (NE) activity in sputum using FRET (fluorescence resonance energy transfer) assay after PBS aliquotation and freezing.
On the day of screening, if possible, for baseline assessment of NE activity, on Day −1 as soon as possible after the subject's arrival at the study site for baseline assessment of NE activity, on Day 1 in the period of time between 1 h and 3 h after start of inhalation, and in the morning of Day 2, at approx. 24 h after start of inhalation.
For evaluation of NE activity in sputum, at first, the weight of the sputum sample was determined and 8 mL cold phosphate-buffered saline (PBS) per gram purified sputum was added. […]
The NE activity in sputum was evaluated by using a FRET elastase assay adapted from an assay described in Nature Protocols, 2008, 3, 991 (B. Korkmaz, S. Attucci, M. A. Juliano et al.) and validated by MLM Medical Labs GmbH, Mönchengladbach, Germany.
The assay is based on the reaction of human neutrophil elastase with the substrate 2Abz-Ala-Pro-Glu-Glu-Ile-Met-Arg-Arg-Gln-Tyr(3NO2)—OH (GeneCust Europe S.A., Ellange, Luxembourg, #P160301-SY452824). […] The product of the reaction is detected through fluorescence measurement and the initial reaction velocity is determined. […]

With CCCCCCCC[C@@H]1NC(=O)[C@@H]2CCCN2C(=O)[C@H]2CCCN2C(=O)[C@H](Cc2ccc(O)cc2)NC(=O)[C@H](CCCCN)NC(=O)[C@H](CCC(N)=O)NC(=O)[C@@H]2CCCN2C(=O)[C@@H]2CCCN2C(=O)[C@H]([C@@H](C)CC)NC(=O)[C@H](CO)NC(=O)[C@H](C)NC(=O)[C@H]([C@@H](C)O)NC(=O)[C@H](CCC(=O)O)NC1=O [cyclo(-OctG-Glu-Thr-Ala-Ser-Ile-Pro-Pro-Gln-Lys-Tyr-^DPro-Pro-)] (cyclo([Gly(octyl)]ETASIPPQKY[dP]P)) the “death, serious and other significant adverse events” value ([1]; CF patients, single inhaled doses 80, 160, 320 mg) was “No death, no serious adverse events (AE) and no other significant AE”, the “TEAEs rated as severe” value ([1]; human, in vivo) was “None” and the “causal relationship of TEAEs to active compound” value ([1]; human, in vivo) was “not related”. The “total number of AEs (all TEAEs)” value ([1]; human, in vivo) was 6 and the “mean concentration of active NE in sputum after single-dose inhalation” value [2] was “strongly decreased”.
